In one assay the test system is Campylobacter jejuni. As to the kind of experiment: MIC by agar dilution (NCCLS M7-A4), 288 enteropathogenic isolates, gemifloxacin and 15 other antimicrobials. To be noted: for MIC: Campylobacter jejuni.
In a further assay the test system is Proteus mirabilis. As to the kind of experiment: MIC by agar dilution (NCCLS), 322 nosocomial Gram negative isolates, Athens 1998. In kind it is cell-based. The conditions noted are these: Proteus mirabilis; n = 57 isolates.
The next assay has as its system Acinetobacter spp. The description is as above. In kind it is cell-based. The conditions noted are these: n = 38 strains; for MIC50 / MIC90: Acinetobacter.
A further assay has as its system Hafnia alvei. As to the kind of experiment: MIC by agar dilution (NCCLS M7-A4), 288 enteropathogenic isolates, gemifloxacin and 15 other antimicrobials. In kind it is cell-based. To be noted: Hafnia alvei N= 32.
A further assay relates to Enterobacter spp. Nature of the assay: MIC by agar dilution (NCCLS), 322 nosocomial Gram negative isolates, Athens 1998. The format is cell-based. The conditions noted are these: Enterobacter, n = 57 isolates; for MIC50: read-out: MIC50; for MIC90: read-out: MIC90.
In another assay the test system is Yersinia enterocolitica. As to the kind of experiment: MIC by agar dilution (NCCLS M7-A4), 288 enteropathogenic isolates, gemifloxacin and 15 other antimicrobials. In kind it is cell-based. The conditions noted are these: Yersinia enterocolitica N= 22.
For the next assay, the system named is Aeromonas spp. As to the kind of experiment: MIC by agar dilution (NCCLS M7-A4), 288 enteropathogenic isolates, eight quinolones. The format is cell-based. The conditions noted are these: Aeromonas spp. (n = 16).
A further assay has as its system Enterococcus faecalis. As to the kind of experiment: MIC by agar dilution (NCCLS), 411 isolates Buenos Aires 1998-99. In kind it is cell-based. The conditions noted are these: Enterococcus faecalis (n = 48).
The test system of the next assay is Staphylococcus aureus. The description is as above. In kind it is cell-based. The conditions noted are these: for MIC90: Staphylococcus aureus.
Another assay deals with Citrobacter freundii. Nature of the assay: MIC by NCCLS broth microdilution, 1100 Japanese clinical isolates 1997-1998. The format is cell-based.
In assay [1] the test system is Staphylococcus epidermidis. The description is as above. To be noted: for MIC50 / MIC90: Staphylococcus epidermidis. In kind it is cell-based.
A further assay relates to Shigella spp. Described as above. In kind it is cell-based. The conditions noted are these: Shigella spp. (n=34).
The test system of another assay is P. aeruginosa. Nature of the assay: MIC by two-fold serial agar dilution, quinolone-resistant strains. The format is cell-based. To be noted: Pseudomonas aeruginosa.
The subject of the next assay is Providencia rettgeri. Nature of the assay: MIC by NCCLS broth microdilution, 1100 Japanese clinical isolates 1997-1998. In kind it is cell-based.
Setting [2] is: 24 h, read-out: MIC (mg/L) Range.
Where [3] appears, read: S. aureus, Methicillin resistant (n = 14).
[4] abbreviates: Staphylococcus epidermidis oxacillin susceptible (n=35).
The mark [5] stands for this setting: Staphylococcus epidermidis oxacillin resistant (n=43).

Values after ≈ are worked out from the molar mass of the structure shown. Like-named read-outs stand apart in the source and are kept apart here.

Consider `Cc1c(F)c(N2CCNC(C)C2)cc2c1c(=O)c(C(=O)O)cn2C1CC1` (centres unmarked) [Grepafloxacin, grepafloxacin], for which the “MIC (mg/L) Range” value in the assay with Campylobacter jejuni (Campylobacter jejuni N= 91) was 0.03 to 128 mg/L. Moreover, the MIC with Campylobacter jejuni (read-out: MIC (mg/L) 50%) was 32 mg/L (≈ 89 µM); in the assay with Campylobacter jejuni (read-out: MIC (mg/L) 90%) it was 64 mg/L (≈ 178 µM); in the assay on Hafnia alvei (setting [2]), 0.015 to 0.06 mg/L (≈ 0.0417 to 0.167 µM); in the assay on Hafnia alvei (read-out: MIC (mg/L) 50%), 0.03 mg/L (≈ 0.0835 µM); with Hafnia alvei (read-out: MIC (mg/L) 90%), 0.06 mg/L (≈ 0.167 µM); with Yersinia enterocolitica (setting [2]), 0.015 to 0.25 mg/L (≈ 0.0417 to 0.696 µM). The MIC in the assay with Yersinia enterocolitica (read-out: MIC (mg/L) 50%) and with Yersinia enterocolitica (read-out: MIC (mg/L) 90%) was 0.03 mg/L (≈ 0.0835 µM) in each case. Further, the MIC50 in the assay on Proteus mirabilis came to 0.5 µg/mL (≈ 1.39 µM); against Acinetobacter spp. it was 2 µg/mL (≈ 5.56 µM); with Enterobacter spp. it was 0.06 µg/mL (≈ 0.167 µM); with Aeromonas spp., 0.03 µg/mL (≈ 0.0835 µM). Moreover, the MIC90 was 16 µg/mL (≈ 44.5 µM) in the assay with Proteus mirabilis, 64 µg/mL (≈ 178 µM) in the assay with Acinetobacter spp., more than 64 µg/mL with Enterobacter spp. and 0.06 µg/mL (≈ 0.167 µM) in the assay on Aeromonas spp.. Further, the “MIC Range” value against Acinetobacter spp. is not above 0.03 to 64 µg/mL; against Aeromonas spp. it was not above 0.015 to 0.12 µg/mL. In addition, in the assay with Aeromonas spp., the “% Susceptible” value is given as 100%.
As to `CC1COc2c(N3CCN(C)CC3)c(F)cc3c(=O)c(C(=O)O)cn1c23` (centres unmarked) [Ofloxacin, ofloxacin], the MIC was 16 mg/L (≈ 44.3 µM) in the assay with Campylobacter jejuni (read-out: MIC (mg/L) 50%); 32 mg/L (≈ 88.6 µM) in the assay with Campylobacter jejuni (read-out: MIC (mg/L) 90%); 0.03 mg/L (≈ 0.083 µM) in the assay with Hafnia alvei (setting [2]); 0.03 mg/L (≈ 0.083 µM) in the assay on Hafnia alvei (read-out: MIC (mg/L) 50%); 0.03 mg/L (≈ 0.083 µM) with Hafnia alvei (read-out: MIC (mg/L) 90%); 0.03 to 0.5 mg/L (≈ 0.083 to 1.38 µM) with Yersinia enterocolitica (setting [2]). The MIC in the assay on Yersinia enterocolitica (read-out: MIC (mg/L) 50%) and in the assay with Yersinia enterocolitica (read-out: MIC (mg/L) 90%) was 0.12 mg/L (≈ 0.332 µM) in each case. Besides, the MIC50 in the assay with Proteus mirabilis is 0.25 µg/mL (≈ 0.692 µM); against Acinetobacter spp. it was 8 µg/mL (≈ 22.1 µM); in the assay on Enterobacter spp. it was 0.125 µg/mL (≈ 0.346 µM); with Aeromonas spp., not above 0.015 µg/mL. Moreover, the MIC90 in the assay with Proteus mirabilis is 32 µg/mL (≈ 88.6 µM); in the assay on Acinetobacter spp., 64 µg/mL (≈ 177 µM); against Enterococcus faecalis it was more than 32 µg/mL; with Staphylococcus aureus (setting [3]), 16 µg/mL (≈ 44.3 µM); with Staphylococcus aureus (Staphylococcus aureus (n = 80)) it was 8 µg/mL (≈ 22.1 µM); in the assay with Enterobacter spp., 64 µg/mL (≈ 177 µM). The compound further had an MIC90 in the assay with Aeromonas spp. of 0.03 µg/mL (≈ 0.083 µM). Moreover, the “MIC Range” value against Acinetobacter spp. is 0.125 to 64 µg/mL; against Aeromonas spp., not above 0.015 to 0.12 µg/mL. In addition, the “Resistance (%)” value in the assay on Staphylococcus aureus (setting [3]) is on record as 100%; with Staphylococcus aureus (S. aureus, Methicillin susceptible (n = 66)) it was 0%. Besides, in the assay on Aeromonas spp., the “% Susceptible” value came to 100%.
Take `NC1CCN(c2nc3c(cc2F)c(=O)c(C(=O)O)cn3-c2ccc(F)cc2F)C1` (centres unmarked) [Tosufloxacin, tosufloxacin]: the MIC50 was 0.125 µg/mL (≈ 0.309 µM) in the assay with Citrobacter freundii (Citrobacter freundii); 8 µg/mL (≈ 19.8 µM) in assay [1] (setting [5]); 0.063 µg/mL (≈ 0.156 µM) in [1] (setting [4]); 0.016 µg/mL (≈ 0.0396 µM) with Shigella spp.; 0.125 µg/mL (≈ 0.309 µM) in the assay on Providencia rettgeri (Providencia rettgeri). In addition, the MIC90 against Citrobacter freundii (Citrobacter freundii (n=39)) is 2 µg/mL (≈ 4.95 µM); in assay [1] (setting [5]), more than 16 µg/mL; in [1] (setting [4]), 4 µg/mL (≈ 9.89 µM); in the assay on Shigella spp. it was 0.016 µg/mL (≈ 0.0396 µM); against Providencia rettgeri (Providencia rettgeri (n=12)) it was 8 µg/mL (≈ 19.8 µM). Further, the “MIC Range” value against Citrobacter freundii (Citrobacter freundii (n=39)) was 0.016 to 2 µg/mL; in [1] (setting [4]), 0.032 to 16 µg/mL; against Shigella spp. it was not above 0.008 to 0.032 µg/mL; against Providencia rettgeri (Providencia rettgeri (n=12)) it was 0.063 to 8 µg/mL. Besides, in the assay on P. aeruginosa, the MIC turned out to be 1 µg/mL (≈ 2.47 µM).

These data come from patent EP1561465A2, “Methods of use of fluoroquinolone compounds against bacteria” (LG Life Sciences, Ltd., priority 1999, dated 2001).
